Source: patent US9561234B2, “Methods for treating diseases of the retina” (Allergan, Inc., priority 2010, dated 2017)
Entries after “also recorded” stand apart in the source; their conditions may differ.

Tests used:
[1] = tested on: C57B6 mice with oxygen-induced retinopathy; assay: Oxygen-induced retinopathy (hyperoxia): retinal neovascularization; type: in vivo; conditions: gavage once daily P10 through P16; evaluated on P17; FIG. 10
Procedure: Litters of newborn mice and their dams were placed in a 75% oxygen chamber from P7 to P12. The chamber contained enough food and water for 5 days and was opened only to allow drug administration to the animals. The mice were returned to room air with normal oxygen content on P12. Olanzapine in water or VEH (water) was administered once daily by gavage beginning on P10 and continuing through P16. Retinal neovascularization was evaluated on P17 after 5 days of exposure of the animals to room air. Error bars, SEM.
Oxygen-induced retinopathy (OIR)/Hyperoxia was induced in C57B6 mice using the protocol reported by Smith et al. (Smith L E, Wesolowski E, McLellan A, et al. Oxygen-induced retinopathy in the mouse. Invest Ophthalmol Vis Sci. 1994; 35(1):101-111). […] Retinal neovascularization was evaluated on P17 after 5 days of exposure of the animals to room air.
Retinal neovascularization was evaluated by angiography in mice subjected to OIR as described previously (Smith L E, Wesolowski E, McLellan A, et al. Oxygen-induced retinopathy in the mouse. Invest Ophthalmol Vis Sci. 1994; 35(1):101-111). […] Quantification of retinal neovascularization was performed as described previously (Chen J, Connor K M, Aderman C M, Smith L E. Erythropoietin deficiency decreases vascular stability in mice. J Clin Invest. 2008; 118(2):526-533). […]

ARPE-19 cells = assay: Cell viability assay: protection of RPE cells from tBH oxidative stress; type: cell-based; conditions: for PROTECTION (%) AT 10 uM: protection of RPEs from oxidative stress (0.3 mM tBH), ARPE-19 cells
Procedure: (§1) ARPE-19 cells from ATCC were grown in DEME/F12 medium supplemented with 10% Fetal Bovine Serum (FBS) and split into 96-well plates at a density of 10,000 cells per well. Cells were incubated overnight in 0.1% FBS medium before addition of compound/drug. Stocks of compounds of interest were made at different concentrations and added to ARPE-19 cells in 0.1% FBS medium for one hour.
After one hour of compound/drug pretreatment, cells were incubated with 0.3 mM tert-butyl hydroperoxide (tBH) for 3 hours followed by three times of washing and replacement with fresh drug and medium (0.1% FBS medium) for overnight. […] Error bars, SEM. n=3.

blue light exposed rats [2] = assay: Electroretinography (ERG) assay after blue light exposure; type: in vivo, Sprague-Dawley (SD) rats
Procedure: (§2) Four to five month old Sprague-Dawley (SD) male rats were used in the following study. Drug treatment was started 2 days before blue light exposure. Animals received olanzapine IP injection once per day for 3 days and the last dosing was 1 hour before blue light exposure.
(§3) For intravitreal injection (IVT), animals received olanzapine (having the structure shown below) 1 hour before blue light exposure. For topical administration, the drug was given 24 hours (BID) and one hour (QI) before blue light exposure. Water was used for parallel control vehicle IP/IVT injection or topical administration. Rats were dark adapted for 24 hours before they were exposed to blue light with lux intensity of ˜6-7 k for 4 hours. Right after the blue light exposure, the rats were dark adapted again for another 3 days before returning to normal room light (12-hour light/12-hour dark). Optical coherence tomography (OCT) was used to evaluate the retinal thickness change caused by blue light at 7-10 days post blue light exposure. Error bars, SEM. (FIG. 3).
Bilateral Flash Electroretinograms were recorded in SD rats using the Espion E^2 electroretinography system. On the day of ERG, Animals were dark adapted for at least 30 minutes. Their eyes were dilated with Tropicamide HCl (1%) and Ak-dilate (10%). Prior to ERG recording, the animal was anesthetized with intramuscular injection of 40 mg/ml Ketamine HCl and 12 mg/ml Xylazine HCl, and placed onto heated platform. The ground needle was placed in the skin under the arm and the reference needle was place in the skin above the head. Retinae were stimulated using 1 cd.s/m2 flash for an average of 10 traces at 0.1 Hz. Recording filter was set at 300 Hz. ERG responses were analyzed using Espion E^2, and Microsoft excel program. The b-wave amplitude was measured from the trough of the a-wave to the peak of the b-wave, and the a-wave was measured as the difference in amplitude between recording at onset and the trough of the negative deflection. Error bars, SEM. (FIGS. 4, 8, and 9).

[3] = tested on: laser induced choroidal neovascularization in rats; assay: Choroidal neovascularization (CNV) assay, laser induced; type: in vivo, Brown Norway rats; conditions: i.p. 1 mg/kg once a day for 3 days plus intravitreal day 1, 4 & 6; 11 days after laser; FIG. 11
Procedure: Brown Norway rats (Charles Rivers), weighing 250-300 grams each were used in the study. Drug treatment was started 2 days prior to Laser treatment. Olanzapine was given i.p. (1 mg/kg) once a day for 3 days (day −2, −1 & 0). The last dose on day 0 was delivered about 1 hr before laser treatment. Phosphate buffered saline (PBS) was used for parallel control vehicle IP injection. On day zero of the laser procedure, rat eyes (pupil) were dilated with Tropicamide HCl HCl (1%) and Ak-dilate (10%). Rats were then anesthetized with intramuscular injection of 40 mg/ml Ketamine HCL and 12 mg/ml Xylazine HCl. The fundo's was visualized using a microscope slide coverslip with Refresh Liquigel eye drops as an optical coupling agent. For each animal, 6 laser spots in each eye (360 mW power, 0.07 sec. duration, 50 μm spot size) were made with argon laser (Coherent Inc.; Santa Clara, Ca.) concentrically at approximately equal distances around the optic disc, between every 2 retinal vessels. A single 5-ul volume of the drug (olanzapine) or PBS was injected into the vitreous cavity at day 1, 4 & 6 post-laser photocoagulation procedure. At 11 days after laser treatment, animals were sacrificed by CO2 exposure and CNV formation was assayed as described previously. […] The area of fluorescence was quantified using Metamorph image analysis software (RPI, Natick, Mass.).

blue light exposed rats [4] = assay: Blue light study: retinal thickness by optical coherence tomography; type: in vivo, Sprague-Dawley (SD) rats; conditions: IP once per day for 3 days; OCT 7-10 days post blue light; FIG. 3
Procedure: Drug treatment was started 2 days before blue light exposure. Animals received olanzapine IP injection once per day for 3 days and the last dosing was 1 hour before blue light exposure. Rats were dark adapted for 24 hours before they were exposed to blue light with lux intensity of ˜6-7 k for 4 hours. Right after the blue light exposure, the rats were dark adapted again for another 3 days before returning to normal room light (12-hour light/12-hour dark). Optical coherence tomography (OCT) was used to evaluate the retinal thickness change caused by blue light at 7-10 days post blue light exposure. Error bars, SEM. OS=Left Eye, OD=Right Eye.
as §2
For intravitreal injection (IVT), animals received olanzapine (having the structure shown below) 1 hour before blue light exposure. For topical administration, the drug was given 24 hours (BID) and one hour (QI) before blue light exposure. Water was used for parallel control vehicle IP/IVT injection or topical administration. Rats were dark adapted for 24 hours before they were exposed to blue light with lux intensity of ˜6-7 k for 4 hours. […]

blue light exposed rats [5] = assay: H&E staining and immuno-histochemistry of rat ocular tissue after blue light exposure; type: in vivo, Sprague-Dawley rats; conditions: IP, 2-3 wks after blue light exposure
Procedure: as §2, §3
Sprague-Dawley male rats 2-3 weeks after blue light exposure were euthanized with CO2 and orbits enucleated. Eyes were fixed in Davidson's fixative overnight at room temperature and transferred to 70% ethanol for 24 hrs. Further tissue processing was done by serial dehydration in 80%, 95% & 100% alcohol and Propar, followed by paraffin embedding. Whole rat eyes were transversely cut in the vertical meridian proceeding from nasal to temporal side, using a Microtome (RM2255; Leica Microsystems). Using optic nerve head as the landmark, a total of 45 serial sections with 5 microns/section were collected on 15 glass slides. Slide #s 1, 5, 10 & 15 were deparaffinized and sequentially stained using hematoxylin (nucleus) and eosin (cytoplasm) as per standard protocol to compare photoreceptor/RPE lesion between experimental groups. The rest of the slides were used to determine expressions of Rhodopsin, RPE65 and GFAP using the specific antibodies by standard immune-histochemistry techniques.

[6] = tested on: IL-8 secretion from RPE cells (ARPE-19); assay: IL-8 assay: Poly I:C induced IL-8 secretion from RPE cells; type: cell-based; conditions: 1 ug/ml poly I:C, 24 hours; FIG. 1B
Procedure: as §1
After one hour of drug pretreatment, cells were incubated with 1 ug/ml polyl:C for 24 hours. The cell culture supernatant was used to measure IL-8 production with IL-8 ELISA Kit (R&D Systems, D8000C). Error bars, SEM. n=3.

Cc1cc2c(s1)Nc1ccccc1N=C2N1CCN(C)CC1 [Olanzapine, 2-methyl-4-(4-methylpiperazin-1-yl)-10H-benzo[b]thieno[2,3-e][1,4]diazepine]
attenuation of hyperoxia induced retinal neovascularization [1]: significantly attenuates | PROTECTION (%) AT 10 uM (ARPE-19 cells): 116% | protection of RPE cells from oxidative stress (tBH) induced apoptosis / cell death (ARPE-19 cells; tBH, RPE cells, FIGS. 1A, 2): significantly protects in a dose responsive fashion; also recorded: protect | protection of retinal a- and b-waves (ERG) (blue light exposed rats [2]; IP once per day for 3 days, ERG 7-10 days post blue light, FIG. 4): significantly protects | prevention of ERG alteration (blue light exposed rats [2]; intravitreal, 0.04, 0.2, or 1 ug/eye, 1 hour before blue light, ERG 7-10 days post, FIG. 8): significantly prevents | protection of retinal a- and b-wave signals (ERG) (blue light exposed rats [2]; topical ocular dosing 24 hours (BID) and one hour before blue light, ERG 7-10 days post, FIG. 9): significantly protects | inhibition of laser induced choroidal neovascularization [3]: significantly inhibits | protection of superior retinal thickness (OCT) (blue light exposed rats [4]): significantly protects | protection of outer nuclear layer (H&E staining) (blue light exposed rats [5]; FIG. 5): significantly protects | protection from retinal rhodopsin loss (immuno-histochemistry) (blue light exposed rats [5]; FIG. 6): significantly protects | inhibition of GFAP upregulation (immuno-histochemistry) (blue light exposed rats [5]; FIG. 7): partially inhibits | protection from RPE65 loss (immuno-histochemistry) (blue light exposed rats [5]; FIG. 7): significantly protects | inhibition of Poly I:C induced IL-8 secretion from RPE cells [6]: inhibits

Clc1ccc2c(c1)N=C(N1CCNCC1)c1ccccc1N2 [n-desmethly clozapine, N-desmethyl clozapine]
PROTECTION (%) AT 10 uM (ARPE-19 cells): 77%

Cc1cc2c(s1)Nc1ccccc1N=C2N1CC[N+](C)([O-])CC1 [Metabolite A, Olanzapine-N-oxide]
PROTECTION (%) AT 10 uM (ARPE-19 cells): 103%

Cc1cc2c(s1)Nc1ccccc1N=C2N1CCNCC1 [Metabolite B, N-desmethyl olanzapine]
PROTECTION (%) AT 10 uM (ARPE-19 cells): 129%
